Values quoted from earlier work in patent publication US20240100008A1, “ADMINISTRATION OF GLYCEROL TRIBENZOATE AND GLYCEROL PHENYLBUTYRATE FOR TREATMENT OF NEURODEGENERATIVE AND UREA CYCLE DISORDERS” (Rush University Medical Center, priority 2020, published 2024).

Tests used:
[1] = system: multiple sclerosis in mice
DJ-1 = settings: astrocytes and neurons
BDNF = settings: brain cells
NT-3 = settings: brain cells
[2] = system: animal model of Alzheimer's disease
[3] = not given; remark: listed apart in the source

SMILES: O=C(OCC(COC(=O)c1ccccc1)OC(=O)c1ccccc1)c1ccccc1 [glyceryl (i.e. glycerol) tribenzoate, glycerol tribenzoate]
- release form of sodium benzoate (in vivo): sustained-release and a slow-release form

SMILES: O=C([O-])c1ccccc1.[Na+] [sodium benzoate, Sodium benzoate]
- disease process of multiple sclerosis [1]: suppresses
- DJ-1 protein level (DJ-1): upregulates
- production of BDNF (BDNF): increases
- production of NT-3 (NT-3): increases
- memory and learning [2]: protecting memory and learning
- oxidative stress [2]: attenuating oxidative stress
- excretion from the body (through urine): quickly excreted
- side effects ([3]; patients, high dose sodium benzoate several times a day): feel drowsy and also suffer from nausea, vomiting and headache

SMILES: O=C(CCCc1ccccc1)OCC(COC(=O)CCCc1ccccc1)OC(=O)CCCc1ccccc1 [glycerol phenylbutyrate, Glycerol phenylbutyrate]
- side effect ([3]; in vivo, po): diarrhea is a common side effect
